{"source": "paper PMC6965176", "about": "“Targeting Forward and Reverse EphB4/EFNB2 Signaling by a Peptide with Dual Functions” (Scientific Reports, 2020)", "key": {"RF24_Bev cells": {"tested_on": "RF24_Bev cells", "assay": "Cell death in bevacizumab-resistant RF24 cells (SYTOX-green flow cytometry)", "assay_type": "cell-based", "details": "VEGF + Bev, SYTOX-negative live cells by flow cytometry (Fig. 4C,D)", "method": "Figure 4 BIDEN-AP–based agents inhibit tube formation and sensitize resistant endothelial cells to anti-VEGF antibody. (A,B) Tube formation by RF24 cells treated with EFNB2-Fc (2 nM) or BIDEN-AP (15 µM) compared to untreated controls (CTL). Representative data from three independent experiments are presented. (A) Representative microphotographs of tubes formed by RF24 cells are shown (n = 3). Images were taken at × 100 magnification. (B) Quantification of the number of nodes per field in three technical replicates. […] (C) Representative flow cytometry plots from three independent experiments of RF24_Bev cells are shown here. SYTOX-negative staining represents the live cell population.\nGiven the important role of endothelium in adaptive changes with antiangiogenic therapy, we further tested the effects of BIDEN-AP in overcoming resistance to anti-VEGF therapy in RF24 endothelial cells. To do this, we first established a bevacizumab (Bev)-resistant RF24 cell line (RF24_Bev) selected though continuous Bev treatment at low dose ([…]) for 2 weeks. The RF24_Bev cells were maintained at a Bev concentration of […]. Using flow cytometry with SYTOX-green staining, we quantified the live (SYTOX-negative) vs. dead (SYTOX-positive) populations after treatment with BIDEN-AP or CCPM-BIDEN-AP."}, "EphB4": {"molecular_target": "T1, EphB4 (Homo sapiens, UniProt P54760)", "T1 construct": "purchased R&D Systems", "T1 sequence (P54760 16-987)": "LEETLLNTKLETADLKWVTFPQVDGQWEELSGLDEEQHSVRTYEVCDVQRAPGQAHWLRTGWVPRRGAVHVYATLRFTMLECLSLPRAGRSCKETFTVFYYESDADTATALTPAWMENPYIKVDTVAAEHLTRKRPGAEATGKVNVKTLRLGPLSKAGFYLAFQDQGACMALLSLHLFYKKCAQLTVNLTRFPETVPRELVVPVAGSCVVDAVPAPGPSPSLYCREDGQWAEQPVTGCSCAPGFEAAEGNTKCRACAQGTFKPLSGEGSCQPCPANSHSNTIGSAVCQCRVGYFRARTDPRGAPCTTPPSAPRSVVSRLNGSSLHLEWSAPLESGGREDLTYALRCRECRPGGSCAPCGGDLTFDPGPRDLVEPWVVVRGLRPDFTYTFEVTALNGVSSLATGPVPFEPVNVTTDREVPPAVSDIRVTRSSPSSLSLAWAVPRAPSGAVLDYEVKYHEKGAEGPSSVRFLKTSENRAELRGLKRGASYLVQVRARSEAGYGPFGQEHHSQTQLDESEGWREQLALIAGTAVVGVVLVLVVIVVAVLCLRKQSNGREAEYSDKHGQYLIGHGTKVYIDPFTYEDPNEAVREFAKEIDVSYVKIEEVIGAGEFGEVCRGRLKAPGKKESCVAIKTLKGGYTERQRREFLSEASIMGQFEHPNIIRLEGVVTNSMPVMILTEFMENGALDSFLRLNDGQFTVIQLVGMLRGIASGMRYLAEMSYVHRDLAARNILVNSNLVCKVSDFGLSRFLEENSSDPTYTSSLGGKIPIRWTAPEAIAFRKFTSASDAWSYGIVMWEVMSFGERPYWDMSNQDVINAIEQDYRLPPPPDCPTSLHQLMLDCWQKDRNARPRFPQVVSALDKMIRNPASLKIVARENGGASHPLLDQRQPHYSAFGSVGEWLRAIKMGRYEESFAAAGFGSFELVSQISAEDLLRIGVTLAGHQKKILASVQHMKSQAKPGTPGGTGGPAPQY", "assay": "SPR (BIACore) binding of peptides to immobilized EphB4", "details": "rhEphB4-coated chips, 0.16-20 nM equivalent BIDEN-AP, duplicate, visual inspection; poor fitting to 1:1 or 1:2 models (Fig. 3B)", "from_the_text": "Surface plasmon resonance (SPR) binding and competition assays.\nImmunoblotting, immunoprecipitation, and co-immunoprecipitation."}}, "note": "Non-standard residues stand in square brackets, D forms with d. No end group written: not given here."}
{"substance": "CCPM-BIDEN-AP: nanoconjugate of BIDEN-AP with core-crosslinked polymeric micelles (CCPM) (TN[dY]LFSPNGPIARAW; also: conjugated to core-crosslinked polymeric micelles (CCPM))", "values": [{"measurement": "re-sensitization of bevacizumab-resistant endothelial cells to Bev", "setting": "RF24_Bev cells", "value": "re-sensitized these cells to Bev treatment"}, {"measurement": "binding avidity to immobilized EphB4 (SPR sensorgrams)", "setting": "EphB4", "value": "stronger binding avidity to EphB4 than the unconjugated BIDEN-AP peptide"}]}
